Data: patent US11261201B2 (priority 2018, dated 2022)
Values after ≈ are worked out from the molar mass of the structure shown. Where two headings read alike, the source gives them in different places.

Tests used:
E. coli = assay: Gram negative MIC protocol (OD600, LB, 24 h); settings: Escherichia coli
Description: (§1) Overnight bacterial cultures were grown in LB with no added antibiotics at 37° C. with shaking. A 1:1000 dilution of these cultures into LB was exposed to concentration gradients of compounds in 96-well plates (100 μL per well assay volume). Resulting plates were incubated at 37° C. for 24 h without shaking, and OD600 was measured at the end of the incubation. MICs were determined as the lowest concentrations at which OD600 remained at baseline.

A. baumannii = assay: Gram negative MIC protocol (OD600, LB, 24 h); settings: Acinetobacter baumannii
Description: as §1

H37RvMA = assay: Tuberculosis Alamar Blue/Resazurin assay (MIC); format: cell-based; settings: Mycobacterium tuberculosis, H37RV, read-out: WT H37Rv MTB Activity
[1] = read-out: MIC E. coli delta-TolC LB Media, E. coli delta-TolC, LB media, OD600
[2] = read-out: MIC WT E. coli LB Media, WT E. coli, LB media, OD600
[3] = read-out: MIC A. baumannii LB Media, A. baumannii, LB media, 24 h, OD600
[4] = read-out: MIC A. baumannii LB Media

Structure (SMILES) | MIC (E. coli; [1]) | MIC (E. coli; [2]) | MIC (A. baumannii; [3]) | MIC (H37RvMA; WT H37Rv MTB) | MIC (H37RvMA) | MIC (A. baumannii; [4])
OC1(CCNCc2ccccc2)CC2CCC1C2 (stereo not drawn) [B60] | > 150 µM | > 150 µM | > 150 µM | > 150 µM | – | –
c1ccc(CNC[C@@H]2C[C@H]2c2ccccc2)cc1 [B61] | > 150 µM | > 150 µM | > 150 µM | > 150 µM | – | –
CC(NCc1ccccc1)C1CC2CCC1CC2 (stereo not drawn) [B62] | > 150 µM | > 150 µM | > 150 µM | > 150 µM | – | –
C1=C(CNCc2ccccc2)CCCC1 [B63] | > 150 µM | > 150 µM | > 150 µM | > 150 µM | – | –
c1ccc(CNCCN2CC3CCC(C2)O3)cc1 [B64] | > 150 µM | > 150 µM | > 150 µM | – | > 150 µM | –
c1ccc(CNCCc2ccc3c(c2)COC3)cc1 [B65] | > 150 µM | > 150 µM | – | – | > 150 µM | > 150 µM
c1ccc(CNCCC2CC3CCC2O3)cc1 (stereo not drawn) [B66] | > 150 µM | > 150 µM | > 150 µM | > 150 µM | – | –
CC(C)(CN1CCOCC1)NCc1ccccc1 [B67] | > 150 µM | > 150 µM | > 150 µM | > 150 µM | – | –
COc1ccc(CC(C)NCc2ccccc2)cn1 (stereo not drawn) [B68] | > 150 µM | > 150 µM | > 150 µM | – | > 150 µM | –
CC1CC1C(C)NCc1ccccc1 (stereo not drawn) [B69] | > 150 µM | > 150 µM | > 150 µM | > 150 µM | – | –
C1=CC2CC1CC2CCNCc1ccccc1 (stereo not drawn) [B70] | > 150 µM | > 150 µM | > 150 µM | > 150 µM | – | –
C1=C(CCNCc2ccccc2)CCCCC1 [B71] | 90 µM (≈ 20.6 µg/mL) | 150 µM (≈ 34.4 µg/mL) | > 150 µM | 91 µM (≈ 20.9 µg/mL) | – | –
CC(C)(CNCc1ccccc1)C1=CCCCC1 [B72] | > 150 µM | > 150 µM | > 150 µM | > 150 µM | – | –
Cc1cccc(C)c1CNCCC1=CCCCC1 [B73] | > 150 µM | > 150 µM | > 150 µM | > 150 µM | – | –
CC(C)(CNCc1ccccc1)C1=CCCC1 [B74] | > 150 µM | > 150 µM | > 150 µM | > 150 µM | – | –
CC(Cc1ccccn1)NCc1ccccc1 (stereo not drawn) [B75] | > 150 µM | > 150 µM | > 150 µM | – | > 150 µM | –
CC(NCc1ccccc1)C1CC1c1ccc(F)cc1 (stereo not drawn) [B76] | > 150 µM | > 150 µM | > 150 µM | > 150 µM | – | –
CC(NCc1ccccc1)C1C(C)(C)C1(C)C (stereo not drawn) [B77] | > 150 µM | > 150 µM | > 150 µM | > 150 µM | – | –
CC1CC(C)CC(C(C)NCc2ccccc2)C1 (stereo not drawn) [B79] | > 150 µM | > 150 µM | > 150 µM | 91 µM (≈ 22.3 µg/mL) | – | –
CC(NCc1ccccc1)C12C[C@H]3C[C@H](C1)C[C@@H](C2)C3 (stereo partly drawn) [B80] | 90 µM (≈ 24.2 µg/mL) | 250 µM (≈ 67.4 µg/mL) | > 150 µM | > 150 µM | – | –
CC(Cc1cccc(C(F)(F)F)c1)NCc1ccccc1 (stereo not drawn) [B81] | > 150 µM | > 150 µM | – | – | > 150 µM | > 150 µM
CC(Cc1ncccn1)NCc1ccccc1 (stereo not drawn) [B82] | > 150 µM | > 150 µM | > 150 µM | – | > 150 µM | –
c1ccc(CNCCC2CCCOC2)cc1 (stereo not drawn) [B83] | > 150 µM | > 150 µM | > 150 µM | > 150 µM | – | –
COc1cc(CC(C)NCc2ccccc2)ncn1 (stereo not drawn) [B84] | > 150 µM | > 150 µM | > 150 µM | – | > 150 µM | –
